“Also recorded” adds a separate entry of the source.
Assays:
Format in all cases: in vivo, rat
[1] = test system: Long-Evans male rats fed a 37% ethanol liquid diet; assay: Liver regeneration by BrdU incorporation after 2/3 partial hepatectomy in chronic ethanol fed rats; settings: for increase in BrdU labeling: 24 hours after 2/3 hepatectomy, compared to ethanol fed animals; for liver regeneration (BrdU incorporation): after 2/3 hepatectomy
Experimental: (§1) An isocaloric (sucrose substituted for ethanol) diet was administered to pair fed control animals. After three weeks, both groups of rats were injected with either PPAR-α, γ, or δ agonists or saline as a control. […] The […] were given IP injections twice a week. At 6 weeks, the animals underwent 2/3 partial hepatectomy. The removed liver was used for histology, measurement of lipid peroxidation, DNA damage and insulin/IGF signaling as described below. Following ⅔ hepatectomy, the liver remnants were harvested 18, 24, 30 and 48 hours later to assess the regenerative response. To do this, animals were injected IP with BrdU 2 hours before harvest to measure its incorporation into hepatic nuclei as an index of DNA synthesis.

[2] = test system: Long-Evans male rats fed a 37% ethanol liquid diet; assay: Lipid peroxidation in liver by HNE immunostaining; settings: chronic ethanol fed rats
Experimental: as §1
(§2) Paraffin sections (8 μm thick) were immunostained with monoclonal antibodies to 8-hydroxy-deoxyguanosine (8-OHdG) (Oxis Research) or 4-hydroxynonenol (HNE) (Chemicon International, Temecula, Calif.), to detect DNA damage and lipid peroxidation, respectively. Prior to immunostaining, the deparaffinized, re-hydrated sections were treated with 0.1 mg/ml saponin in phosphate buffered saline (10 mM sodium phosphate, 0.9% NaCl, pH 7.4; PBS) for 20 minutes at room temperature, followed by 3% hydrogen peroxide in methanol for 10 minutes to quench endogenous peroxidase activity, and then a 30-minute incubation in SuperBlock-TBS (Pierce Chemical Co., Rockford, Ill.) to block non-specific binding sites. The tissue sections were then incubated overnight at 4° C. with 0.5-1 μg/ml of primary antibody. […] The tissue sections were counterstained with hematoxylin, preserved under coverglass, and examined by light microscopy.

[3] = test system: Long-Evans male rats fed a 37% ethanol liquid diet; assay: DNA damage in liver by 8-OHdG immunostaining; settings: chronic ethanol fed rats
Experimental: as §1, §2

IGF-II receptor = assay: Saturation binding assay in liver of treated rats, IGF-II receptor binding; settings: pooled liver of 8 rats
Source text: Adult male (˜200-250 g) Long Evans rats (Harlan Sprague Dawley, Inc., Indianapolis, Ind.) were pair-fed with isocaloric liquid diets (BioServ, Frenchtown, N.J.) containing 0% (control) or 37% ethanol by caloric content (9.2% v/v) for 8 weeks. During the week prior to initiating the experiment, rats were adapted to the ethanol-containing diets by sequentially feeding them for two days each with diets containing 8%, 17%, 24%, and then 37% ethanol. Chow fed control rats were also studied. Rats were monitored daily to ensure equivalent food consumption and maintenance of body weight. During the last 3 weeks of the experiment while being maintained on either the 0% or 37% ethanol-containing liquid diets, rats in both groups were administered twice weekly (Mondays and Thursdays) intra-peritoneal (i.p.) injections of vehicle (saline), a PPAR-α (GW7647; 25 μg/kg), PPAR δ (L-165,041; 2 μg/kg), or PPAR-γ (F-L-Leu; 20 μg/kg) agonist (CalBiochem, Carlsbad, Calif.). At the conclusion of the experiment, rats were anesthetized with vaporized isofluorane (SurgiVet, Inc. Waukesha, Wis.), and liver and blood were harvested for analysis. Liver tissue samples were immersion fixed in Histochoice (Amresco Corp., Solon, Ohio) and embedded in paraffin. Adjacent histological sections were stained with Hematoxylin and Eosin or Gomori's Trichrome and examined under code. In addition, liver tissue samples were snap-frozen in a dry ice methanol bath and then stored at −80° C. for later mRNA and protein studies. Throughout the experiment, rats were housed under humane conditions and kept on a 12-hour light/dark cycle with free access to food. All experiments were performed in accordance with protocols that conform to guidelines established by the National Institutes of Health and were approved by Institutional Animal Care and Use Committee at the Lifespan-Rhode Island Hospital.
Saturation binding studies were used to determine if the PPAR agonist treatments improved ethanol-impaired insulin and IGF receptor binding in liver. Fresh frozen liver tissue was homogenized in 5 volumes of lysis buffer containing 50 mM Tris-HCl, pH 7.5, 1% NP-40, 150 mM NaCl, 1 mM EDTA, 2 mM EGTA, plus protease (1 mM PMSF, 0.1 mM TPCK, 1 μg/ml aprotinin, 1 μg/ml pepstatin A, 0.5 μg/ml leupeptin, 1 mM NaF, 1 mM Na4P2O7) and phosphatase (2 mM Na3VO4) inhibitors. Protein concentration was determined using the bicinchoninic acid (BCA) assay (Pierce, Rockford, Ill.). Exploratory studies determined the optimum amounts of protein and concentrations of radiolabeled ligand required to achieve 20% specific binding. Insulin receptor binding was measured using 100 μg protein per assay tube. IGF-I binding assays required 25 μg protein per sample, and IGF-II receptor binding assays required 10 μg protein per reaction.
To generate the binding curse, samples from 8 rats per group were pooled in equivalent ratios and protein concentrations were adjusted to be identical for each group. For total binding, duplicate samples were incubated in 100 μl reactions containing binding buffer (100 mM HEPES, pH 8.0, 118 mM NaCl, 1.2 mM MgSO4, 8.8 mM dextrose, 5 mM KCl, 1% bovine serum albumin) and 0.0031 to 1 μCi/ml of [^125I] (2000 Ci/mmol) insulin, IGF-I, or IGF-II. For non-specific binding, duplicate samples were identically prepared but with the addition of 0.1 μM unlabeled (cold) ligand. Incubations were carried out for 16 hours at 4° C. in non-binding 96 well plates (Corning Incorporated Life Science, Lowell, Mass.). Reactions were vacuum harvested (Corning, Lowell, Mass.) onto 96-well GF/C filter plates that had been presoaked for 30 minutes in 0.33% polyethyleneimine (PEI) solution. The filters were washed 5 times with buffer containing 50 mM buffer [4-2-hydroxyethyl)-1-piperazine-ethanesulfonic acid (HEPES), pH 7.4, 500 mM NaCl, and 0.1% BSA. […]

SMILES	increase in BrdU labeling [1]	hepatic lipid peroxidation (HNE immunostaining) [2]	DNA damage (8-OHdG immunoreactivity) [3]	BMAX ± S.E.M. (IGF-II receptor; Control + agonist)	BMAX ± S.E.M. (IGF-II receptor; Ethanol + agonist)	liver regeneration (BrdU incorporation) [1]
CC(C)C[C@H](NC(=O)OCC1c2ccccc2-c2ccccc21)C(=O)O [PPAR-γ, F-L-Leu]	approximately 20%	substantially improved	protective effect	25.20 ± 2.04	22.56 ± 4.43	
CC(C)(Sc1ccc(CCN(CCCCC2CCCCC2)C(=O)NC2CCCCC2)cc1)C(=O)O [PPAR-α, GW7647]	approximately 20%	substantially improved	protective effect	40.27 ± 3.28	28.88 ± 6.20	more modest beneficial effects
CCCc1c(OCCCOc2ccc(OCC(=O)O)cc2)ccc(C(C)=O)c1O [PPAR-δ, L-165,041]		substantially improved	most prominent protective effect; also recorded: superior to the α and γ agents in preventing hepatocyte damage	29.01 ± 1.99	51.50 ± 13.53	essentially restored liver regeneration to levels seen in normal control animals; also recorded: returns the liver regenerative response to normal levels; also recorded: more modest beneficial effects

Reference: patent publication US9717719B2, “Treatment, prevention, and reversal of alcohol-induced liver disease” (Rhode Island Hospital, priority 2006, dated 2017)
